Experimental data from paper PMC2824924 (Bioorganic & medicinal chemistry, 2009).

Assays:
[1] = tested on: Vero cells; experiment: Cytotoxicity against Vero cells; assay type: cell-based, African monkey
[2] = tested on: Cryptococcus neoformans; experiment: Antimicrobial assay, antifungal; conditions: compared to control drug amphotericin B
[3] = tested on: Plasmodium falciparum W2 clone (chloroquine-resistant); experiment: In vitro antimalarial assay; assay type: cell-based; conditions: W2, 72 h, read-out: Plasmodium falciparum W2 clone IC50
[4] = tested on: Plasmodium falciparum D6 clone (chloroquine-sensitive); experiment: In vitro antimalarial assay; assay type: cell-based; conditions: D6, 72 h, read-out: Plasmodium falciparum D6 clone IC50
[5] = tested on: National Cancer Institute's 60 cultured human tumor cell lines; experiment: NCI 60 human tumor cell line screen; conditions: mean graph midpoint; concentration of total growth inhibition

| SMILES | Cytotoxicity Vero TC50 ([1]; African monkey, 48 h) | other results |
| --- | --- | --- |
| C[C@H]1[C@@H](O)O[C@@H]2O[C@@]3(C)CC[C@H]4[C@H](C)CC[C@@H]1[C@@]24OO3 [Compound 2, Dihydroartemisinin, reference compound] | 1,407 nM | – |
| C[C@H]1[C@@H](OC/C=C\CO)O[C@@H]2O[C@@]3(C)CC[C@H]4[C@H](C)CC[C@@H]1[C@@]24OO3 [Compound 17] | > 13,430 nM | In vitro antifungal activity (in words) [2]: enhanced activity compared to the control drug, amphotericin B |
| C[C@H]1[C@@H](OC/C=C\CO[C@H]2O[C@@H]3O[C@@]4(C)CC[C@H]5[C@H](C)CC[C@@H]([C@H]2C)[C@@]35OO4)O[C@@H]2O[C@@]3(C)CC[C@H]4[C@H](C)CC[C@@H]1[C@@]24OO3 [Compound 8] | 709 nM | – |
| C[C@H]1[C@@H](OCC(=O)CO)O[C@@H]2O[C@@]3(C)CC[C@H]4[C@H](C)CC[C@@H]1[C@@]24OO3 [Compound 15] | > 13,355 nM | – |
| C[C@@H]1CC[C@H]2[C@@H](C)C(=O)O[C@@H]3O[C@@]4(C)CC[C@@H]1[C@]32OO4 [Compound 1, Artemisinin, reference compound] | > 1,686 nM | – |
| C[C@H]1[C@@H](OCC[C@@H](CO[C@H]2O[C@@H]3O[C@@]4(C)CC[C@H]5[C@H](C)CC[C@@H]([C@H]2C)[C@@]35OO4)O[C@H]2O[C@@H]3O[C@@]4(C)CC[C@H]5[C@H](C)CC[C@@H]([C@H]2C)[C@@]35OO4)O[C@@H]2O[C@@]3(C)CC[C@H]4[C@H](C)CC[C@@H]1[C@@]24OO3 [Compound 18] | 5,259 nM | – |
| C[C@H]1[C@@H](OCC(=O)CO[C@H]2O[C@@H]3O[C@@]4(C)CC[C@H]5[C@H](C)CC[C@@H]([C@H]2C)[C@@]35OO4)O[C@@H]2O[C@@]3(C)CC[C@H]4[C@H](C)CC[C@@H]1[C@@]24OO3 [Compound 4] | 257 nM | – |
| C[C@H]1[C@@H](OCC[C@H](O)CO[C@H]2O[C@@H]3O[C@@]4(C)CC[C@H]5[C@H](C)CC[C@@H]([C@H]2C)[C@@]35OO4)O[C@@H]2O[C@@]3(C)CC[C@H]4[C@H](C)CC[C@@H]1[C@@]24OO3 [Compound 10] | > 7,452 nM | – |
| C=C[C@@H](CO[C@H]1O[C@@H]2O[C@@]3(C)CC[C@H]4[C@H](C)CC[C@@H]([C@H]1C)[C@@]24OO3)O[C@H]1O[C@@H]2O[C@@]3(C)CC[C@H]4[C@H](C)CC[C@@H]([C@H]1C)[C@@]24OO3 [Compound 9] | 773 nM | – |
| CCN(CC)CCCC(C)Nc1ccnc2cc(Cl)ccc12 (stereo not shown) [chloroquine] | – | IC50 [3]: 378 nM; Cytotoxicity Vero TC50 ([1]; Table 2, concentration toxic to 50% of the cells): > 14,881 nM; IC50 [4]: 41.6 nM |
| C[C@H]1[C@@H](Oc2cccc(N[C@@H]3[C@H](C)O[C@@H]4O[C@@]5(C)CC[C@H]6[C@H](C)CC[C@@H]3[C@@]46OO5)c2)O[C@@H]2O[C@@]3(C)CC[C@H]4[C@H](C)CC[C@@H]1[C@@]24OO3 [Compound 7] | > 7,417 nM | In vitro antifungal activity (in words) [2]: enhanced activity compared to the control drug, amphotericin B |
| C[C@H]1[C@@H](O[C@@H](CO[C@H]2O[C@@H]3O[C@@]4(C)CC[C@H]5[C@H](C)CC[C@@H]([C@H]2C)[C@@]35OO4)[C@H](O)CO)O[C@@H]2O[C@@]3(C)CC[C@H]4[C@H](C)CC[C@@H]1[C@@]24OO3 [Compound 12] | 825 nM | In vitro antifungal activity (in words) [2]: enhanced activity compared to the control drug, amphotericin B |
| C[C@H]1[C@@H](OCC(O)CO[C@H]2O[C@@H]3O[C@@]4(C)CC[C@H]5[C@H](C)CC[C@@H]([C@H]2C)[C@@]35OO4)O[C@@H]2O[C@@]3(C)CC[C@H]4[C@H](C)CC[C@@H]1[C@@]24OO3 (stereo partly shown) [Compound 5] | 384 nM | – |
| C[C@H]1[C@@H](OC[C@@H](O)[C@@H](O)CO[C@H]2O[C@@H]3O[C@@]4(C)CC[C@H]5[C@H](C)CC[C@@H]([C@H]2C)[C@@]35OO4)O[C@@H]2O[C@@]3(C)CC[C@H]4[C@H](C)CC[C@@H]1[C@@]24OO3 [Compound 11] | > 7,270 nM | – |
| C[C@H]1[C@@H](OC[C@@H]2O[C@@H]2CO[C@H]2O[C@@H]3O[C@@]4(C)CC[C@H]5[C@H](C)CC[C@@H]([C@H]2C)[C@@]35OO4)O[C@@H]2O[C@@]3(C)CC[C@H]4[C@H](C)CC[C@@H]1[C@@]24OO3 [Compound 13] | > 7,475 nM | – |
| C[C@H]1[C@@H](OCc2cc(O)cc(O[C@H]3O[C@@H]4O[C@@]5(C)CC[C@H]6[C@H](C)CC[C@@H]([C@H]3C)[C@@]46OO5)c2)O[C@@H]2O[C@@]3(C)CC[C@H]4[C@H](C)CC[C@@H]1[C@@]24OO3 [Compound 6] | > 7,075 nM | MG_MID TGI [5]: 2820 nM |
| C[C@H]1[C@@H](OCC(CO[C@H]2O[C@@H]3O[C@@]4(C)CC[C@H]5[C@H](C)CC[C@@H]([C@H]2C)[C@@]35OO4)OS(C)(=O)=O)O[C@@H]2O[C@@]3(C)CC[C@H]4[C@H](C)CC[C@@H]1[C@@]24OO3 (stereo partly shown) [Compound 14] | 6,403 nM | – |
| C[C@H]1[C@@H](OCc2cc(O)cc(O)c2)O[C@@H]2O[C@@]3(C)CC[C@H]4[C@H](C)CC[C@@H]1[C@@]24OO3 [Compound 16] | > 11,711 nM | – |
| CC1=CO[C@@H]2O[C@]3(C)CC[C@H]4[C@H](C)CC[C@@H]1[C@@]24OO3 [Compound 3, Anhydrodihydroartemisinin, reference compound] | > 1,787 nM | – |
